Measured values from US8318737B2, “Compounds and compositions for treating cancer” (Canthera Therapeutics Inc., priority 2009, dated 2012).
In brackets after ≈: the same amount, converted by molar mass. Where a name gives a salt, the structure may show the parent alone.

Experiments:
[1] = precipitation of DMSO solution diluted 1:10 in phosphate buffered saline or water; assay type: physicochemical
Procedure: The compounds of the present invention may be produced using piperlongumine as a starting material yet offer numerous advantages over piperlongumine. […] The compounds of the instant invention are highly soluble in water at concentration of at least 25 mg/mL facilitating pharmaceutical preparation and delivery. Many chemotherapeutic agents transiently increase ROS levels in both cancer cells and normal cells.

solubility in water = assay type: physicochemical

Row | solubility (solubility in water) [mg/mL] | SMILES | concentration in DMSO that precipitated out when diluted 1:10 [1] | solubility in water (solubility in water) [mg/mL]
1 |  | COc1cc(/C=C/C(=O)N2CCC=CC2=O)cc(OC)c1OC [piperlongumine, Piperlongumine] | more than 0.25 mg/ml | 0.1 (≈ 315 µM)
2 | 100 | COc1cc(/C=C/C(=O)N2CCC=CC2=O)cc(OC)c1OCCN1CCOCC1 [tartrate salt of compound one] |  | 
